Experimental data from PubChem BioAssay (NCI).
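Results reflect a 48-hour exposure of cells in 96-well plates to compound at five concentrations. TGI: total growth inhibition.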

What was measured:
Experiment in all cases: inhibition of tumour cell growth, NCI panel, 48 h
[1] = system: HOP-92 NSCLC
[2] = system: SW-620 colon
[3] = system: MALME-3M melanoma
[4] = system: MDA-MB-231 breast
[5] = system: HCT-15 colon
[6] = system: SNB-75 CNS
[7] = system: BT-549 breast
[8] = system: 786-0 renal
[9] = system: CCRF-CEM leukemia
[10] = system: MCF7 breast
[11] = system: OVCAR-3 ovarian
[12] = system: A498 renal
[13] = system: A549 NSCLC
[14] = system: HL-60(TB) leukemia
[15] = system: NCI-H460 lung
[16] = system: KM12 colon
[17] = system: SF-539 CNS
[18] = system: UACC-62 melanoma
[19] = system: SK-MEL-2 melanoma
[20] = system: T-47D breast
[21] = system: SF-268 CNS
[22] = system: MOLT-4 leukemia
[23] = system: SF-295 CNS
[24] = system: SK-MEL-28 melanoma
[25] = system: NCI-H522 lung
[26] = system: K-562 leukemia
[27] = system: MDA-N
[28] = system: SK-MEL-5 melanoma
[29] = system: NCI-H226 lung
[30] = system: CAKI-1 renal
[31] = system: OVCAR-4 ovarian
[32] = system: M14 melanoma
[33] = system: HT29 colon
[34] = system: HOP-62 NSCLC
[35] = system: RPMI-8226 leukemia
[36] = system: LOX IMVI melanoma
[37] = system: SR leukemia
[38] = system: OVCAR-8 ovarian
[39] = system: HS 578T breast
[40] = system: UACC-257 melanoma
[41] = system: NCI-H23 lung
[42] = system: IGROV1 ovarian
[43] = system: SK-OV-3 ovarian
[44] = system: MDA-MB-435
[45] = system: RXF 393 renal
[46] = system: SNB-19 CNS
[47] = system: NCI/ADR-RES ovarian
[48] = system: COLO 205 colon
[49] = system: OVCAR-5 ovarian
[50] = system: U251 CNS
[51] = system: HCT-116 colon
[52] = system: EKVX NSCLC
[53] = system: TK-10 renal
[54] = system: DU-145 prostate
[55] = system: PC-3 prostate
[56] = system: ACHN renal
[57] = system: SN12C renal
[58] = system: UO-31 renal

Which results are given for COc1ccc(C(=O)N/N=C2\C(=O)c3c(C)cc(C)cc3CC2(C)C)cc1?
TGI [1]: 31.3 µM; TGI [2]: 84.2 µM; TGI [3]: 31.6 µM; TGI [4]: 56.1 µM; TGI [5]: 64.3 µM; TGI [6]: 56.5 µM; TGI [7]: 36.2 µM; TGI [8]: 36.1 µM; TGI [9]: 65.6 µM; TGI [10]: 36.4 µM; TGI [11]: 30.9 µM; TGI [12]: 42.4 µM; TGI [13]: 44.2 µM; TGI [14]: 51.5 µM; TGI [15]: 78.4 µM; TGI [16]: 39.9 µM; TGI [17]: 46 µM; TGI [18]: 31.6 µM; TGI [19]: 36.2 µM; TGI [20]: 40.4 µM; TGI [21]: 42.9 µM; TGI [22]: 37.3 µM; TGI [23]: 40.1 µM; TGI [24]: 42.2 µM; TGI [25]: 33.6 µM; TGI [26]: 64.7 µM; TGI [27]: 39.3 µM; TGI [28]: 31.9 µM; TGI [29]: 45.7 µM; TGI [30]: > 100 µM; TGI [31]: > 100 µM; TGI [32]: 38.8 µM; TGI [33]: 36.9 µM; TGI [34]: 37.4 µM; TGI [35]: 57.5 µM; TGI [36]: 34.2 µM; TGI [37]: 47.9 µM; TGI [38]: 56.6 µM; TGI [39]: 41.9 µM; TGI [40]: 98.5 µM; TGI [41]: > 100 µM; TGI [42]: 41.5 µM; TGI [43]: > 100 µM; TGI [44]: 35.1 µM; TGI [45]: 32.6 µM; TGI [46]: 84 µM; TGI [47]: 80.6 µM; TGI [48]: 49.3 µM; TGI [49]: 55.5 µM; TGI [50]: 31.9 µM; TGI [51]: 32.1 µM; TGI [52]: 70.1 µM; TGI [53]: > 100 µM; TGI [54]: 63.8 µM; TGI [55]: 47.7 µM; TGI [56]: 58.7 µM; TGI [57]: 37.2 µM

Which results are given for S=C(NC/C(Br)=C/Br)Nc1cccc2ccccc12?
TGI [1]: 55.9 µM; TGI [3]: 78.8 µM; TGI [4]: 51.3 µM; TGI [5]: > 100 µM; TGI [58]: 55.2 µM; TGI [6]: > 100 µM; TGI [7]: 84.6 µM; TGI [8]: > 100 µM; TGI [9]: 66.2 µM; TGI [10]: 44.4 µM; TGI [11]: 71.8 µM; TGI [12]: 90.4 µM; TGI [13]: > 100 µM; TGI [14]: 37.3 µM; TGI [17]: 69.1 µM; TGI [18]: 67.7 µM; TGI [19]: 48.5 µM; TGI [20]: > 100 µM; TGI [22]: 46.8 µM; TGI [23]: > 100 µM; TGI [25]: 74.6 µM; TGI [26]: 31 µM; TGI [27]: 72.7 µM; TGI [28]: 34.3 µM; TGI [29]: > 100 µM; TGI [30]: > 100 µM; TGI [31]: > 100 µM; TGI [32]: 43.7 µM; TGI [33]: > 100 µM; TGI [34]: 94 µM; TGI [35]: 44.7 µM; TGI [36]: > 100 µM; TGI [37]: > 100 µM; TGI [38]: > 100 µM; TGI [39]: > 100 µM; TGI [40]: > 100 µM; TGI [41]: 74.5 µM; TGI [42]: > 100 µM; TGI [43]: > 100 µM; TGI [44]: > 100 µM; TGI [45]: > 100 µM; TGI [46]: > 100 µM; TGI [47]: 50.9 µM; TGI [48]: 32.7 µM; TGI [49]: > 100 µM; TGI [50]: > 100 µM; TGI [51]: 61.9 µM; TGI [52]: > 100 µM; TGI [53]: > 100 µM; TGI [54]: > 100 µM; TGI [55]: 71.7 µM; TGI [56]: 86.6 µM; TGI [57]: 53.1 µM

What does the source list for N#CC(C#N)N=Nc1ccc(-c2nc3ccccc3[nH]2)cc1?
TGI [1]: 49.6 µM; TGI [2]: 46.9 µM; TGI [3]: 28 µM; TGI [4]: 35.5 µM; TGI [5]: 58.7 µM; TGI [58]: 31.1 µM; TGI [6]: > 100 µM; TGI [7]: 36.3 µM; TGI [8]: 70.9 µM; TGI [9]: 36.8 µM; TGI [10]: 37.6 µM; TGI [11]: 37.8 µM; TGI [12]: > 100 µM; TGI [13]: > 100 µM; TGI [14]: 1.38 µM; TGI [15]: > 100 µM; TGI [16]: > 100 µM; TGI [17]: 35.5 µM; TGI [19]: 64 µM; TGI [20]: 55.7 µM; TGI [21]: 66.4 µM; TGI [22]: > 100 µM; TGI [23]: > 100 µM; TGI [24]: 52 µM; TGI [25]: 22.9 µM; TGI [26]: > 100 µM; TGI [27]: 50.6 µM; TGI [28]: > 100 µM; TGI [29]: > 100 µM; TGI [30]: 82.6 µM; TGI [31]: 68.9 µM; TGI [32]: 52.3 µM; TGI [33]: > 100 µM; TGI [34]: > 100 µM; TGI [35]: > 100 µM; TGI [36]: 32.7 µM; TGI [37]: > 100 µM; TGI [38]: 47.7 µM; TGI [39]: > 100 µM; TGI [40]: 40.9 µM; TGI [41]: 66 µM; TGI [42]: 37.9 µM; TGI [43]: > 100 µM; TGI [44]: 40 µM; TGI [45]: 34.8 µM; TGI [46]: > 100 µM; TGI [47]: 43.2 µM; TGI [48]: 21.8 µM; TGI [49]: > 100 µM; TGI [50]: > 100 µM; TGI [51]: 43.2 µM; TGI [52]: > 100 µM; TGI [53]: 73.4 µM; TGI [54]: 39.6 µM; TGI [55]: 50.4 µM; TGI [56]: 29 µM; TGI [57]: > 100 µM
